{
  "source": "patent US20110224226A1",
  "about": "“COMPOSITIONS AND METHODS FOR INCREASING BLOOD PLATELET LEVELS IN HUMANS” (AKARX, Inc., priority 2006, published 2011)",
  "key": {"[1]": {"tested_on": "human cord blood (CB) CD34^+ cells", "assay": "differentiation of human cord blood CD34+ cells to megakaryocytes", "format": "cell-based", "details": "concentration-dependent; maximum effect similar to that of rhTPO"}, "[2]": {"tested_on": "platelet function", "assay": "platelet function (platelet aggregation and activation)", "format": "cell-based, human"}, "[3]": {"assay": "in-vitro plasma protein binding, humans", "format": "in vitro ADME", "details": "human, 0.05 to 50 μg/mL", "protocol": "The in-vitro plasma protein binding of the drug of Formula I was independent of concentration over the concentration range of 0.05 to 50 μg/mL and was 87.2-89.1% in mice; 87.6-89.2% in rats; 88.3-92.0% in rabbits; […] in dogs; 97.0-97.6% in monkeys; and 96.3-96.6% in humans."}, "[4]": {"tested_on": "liver microsomal enzymes", "assay": "metabolism by human liver microsomal enzymes", "format": "in vitro ADME"}, "[5]": {"target": "T1, CYP1A2 (Homo sapiens, UniProt P05177)", "T1 sequence (P05177 1-516)": "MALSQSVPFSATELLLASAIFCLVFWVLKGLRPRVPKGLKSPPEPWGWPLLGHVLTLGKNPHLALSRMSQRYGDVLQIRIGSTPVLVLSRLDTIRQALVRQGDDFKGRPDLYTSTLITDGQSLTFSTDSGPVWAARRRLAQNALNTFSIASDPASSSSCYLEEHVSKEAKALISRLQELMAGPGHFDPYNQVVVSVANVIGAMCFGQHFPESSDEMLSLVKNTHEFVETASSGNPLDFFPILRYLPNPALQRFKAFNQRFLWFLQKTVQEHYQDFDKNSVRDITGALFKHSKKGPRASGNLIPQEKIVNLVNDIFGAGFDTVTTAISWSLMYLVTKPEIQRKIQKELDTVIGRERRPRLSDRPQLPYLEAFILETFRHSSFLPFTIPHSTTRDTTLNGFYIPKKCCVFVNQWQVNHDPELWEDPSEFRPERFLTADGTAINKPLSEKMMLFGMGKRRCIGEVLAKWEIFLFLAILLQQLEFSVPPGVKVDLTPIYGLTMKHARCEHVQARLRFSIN", "assay": "inhibition of human liver cytochrome P450 CYP1A2", "format": "in vitro ADME", "details": "human liver cytochrome P450 isoenzyme"}, "[6]": {"target": "2C9 (Homo sapiens, UniProt P11712)", "sequence (P11712 whole entry)": "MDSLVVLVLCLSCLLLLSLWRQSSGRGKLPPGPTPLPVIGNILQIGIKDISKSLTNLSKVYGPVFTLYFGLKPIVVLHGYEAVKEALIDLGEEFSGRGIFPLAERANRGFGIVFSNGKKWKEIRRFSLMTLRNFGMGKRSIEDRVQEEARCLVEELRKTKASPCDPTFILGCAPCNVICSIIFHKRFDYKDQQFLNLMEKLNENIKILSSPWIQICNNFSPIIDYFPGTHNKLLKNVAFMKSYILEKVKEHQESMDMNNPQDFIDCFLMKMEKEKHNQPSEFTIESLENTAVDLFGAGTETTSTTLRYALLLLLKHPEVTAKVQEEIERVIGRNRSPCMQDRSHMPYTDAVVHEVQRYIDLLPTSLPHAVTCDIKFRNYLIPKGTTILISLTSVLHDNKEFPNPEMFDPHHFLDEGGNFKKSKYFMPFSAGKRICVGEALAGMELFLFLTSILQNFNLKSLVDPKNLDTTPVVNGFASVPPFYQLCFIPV", "assay": "inhibition of human liver cytochrome P450 2C9", "format": "in vitro ADME", "details": "human liver cytochrome P450 isoenzyme"}, "[7]": {"assay": "4-week repeat dose toxicity in the dog", "format": "in vivo"}, "[8]": {"assay": "cardiovascular and respiratory system effects in the conscious dog", "format": "in vivo", "details": "up to a dose of 300 mg/kg"}, "[9]": {"assay": "QT interval in cynomolgus monkeys", "format": "in vivo", "details": "100 and 1000 mg/kg, appears related to decreased heart rate from acclimation, not drug related"}, "[10]": {"tested_on": "platelet count", "assay": "Example 1 single dose study: pharmacodynamics (platelet count)", "format": "in vivo, human", "protocol": "A single-center, randomized, double-blind, dose-rising study to determine the safety, pharmacokinetics, and pharmacodynamics of single doses of 1-(3-chloro-5-{[4-(4-chlorothiophen-2-yl)-5-(4-cyclohexylpiperazin-1-yl)thiazol-2-yl]carbamoyl} pyridin-2-yl)piperadine-4-carboxylic acid (Formula I) in normal healthy volunteers was performed. The starting dose of the drug of Formula I was 1 mg (expressed as free base). Successive dose cohorts received 3, 10, 20, 50, 75 and 100 mg. The drug substance in the form of the monomaleate salt was suspended in Ora-Plus® (purified water, microcrystalline cellulose, sodium carboxymethylcellulose, xanthan gum, citric acid, sodium phosphate, simethicone, potassium sorbate and methylparaben), a commercially available oral suspending vehicle manufactured by Paddock Laboratories, Inc. Minneapolis, Minn. The Ora-Plus® was diluted with purified water, USP in a 1:1 suspension before being used to suspend the drug substance powder in preparation for oral administration. Prior to administration, 30 mL of the Ora-Plus®/water vehicle was added to each bottle, shaken and then consumed by the subject for each of the 3, 10, 50 and 75 mg dose cohorts. This was followed by an additional 30 mL of vehicle that was added to the bottle as a wash solution, shaken and then consumed by the subject. For the 20 mg and 100 mg dose cohorts, 60 mL of the Ora-Plus®/water vehicle was added to two (2) separate bottles containing the appropriate dose of drug (30 mL each bottle), shaken then consumed by the subjects. This was followed by an additional 60 mL of vehicle that was added as 30 ml to each bottle as a wash solution, shaken and then consumed by the subject.\nA minimum of 9 subjects (male and female healthy volunteers) were enrolled in each cohort. The active group within each cohort included male and female volunteers. Three subjects per cohort received placebo. Each successive dose cohort was treated no sooner than 10 days after the previous group had received the study drug. […]"}, "[11]": {"tested_on": "platelet count", "assay": "Example 2 multi-dose study: pharmacodynamics (platelet count)", "format": "in vivo, human", "protocol": "A double-blind, placebo-controlled, dose rising study was performed in healthy male and female volunteers. Each dose cohort received either placebo or active treatment as an oral suspension once daily for fourteen (14) consecutive days. The dose of study drug was prepared and administered as described in Example 1 above. The doses administered in this multiple dose study were based on the safety and tolerability assessment of the doses administered in Example 1.\nBased on the results of Example 1, the starting dose was 3 mg. Based on the safety and tolerability results from Example 1, the dose was scheduled to be escalated to 10, 20, 50 and 100 mg per day for 14 consecutive days. Successive dose cohorts were not treated until the previous cohort completed 14 days of treatment and the safety follow-up visit on Day 21."}},
  "data": [
    {"compound": "O=C(Nc1nc(-c2cc(Cl)cs2)c(N2CCN(C3CCCCC3)CC2)s1)c1cnc(N2CCC(C(=O)O)CC2)c(Cl)c1", "note": "[Formula I, 1-(3-chloro-5-{[4-(4-chlorothiophen-2-yl)-5-(4-cyclohexylpiperazin-1-yl)thiazol-2-yl]carbamoyl}pyridin-2-yl)piperadine-4-carboxylic acid]", "values": [
      {"measurement": "differentiation of human cord blood CD34+ cells to human megakaryocytes", "setting": "[1]", "result": "promotes the differentiation"},
      {"measurement": "platelet function as measured by platelet aggregation and activation", "setting": "[2]", "result": "does not appear to effect platelet function"},
      {"measurement": "fraction unbound", "setting": "[3]", "result": "0.034 to 0.037"},
      {"measurement": "metabolism by liver microsomal enzymes", "setting": "[4]", "result": "does not appear to be metabolized"},
      {"measurement": "inhibition of CYP1A2", "setting": "[5]", "result": "did not inhibit"},
      {"measurement": "inhibition of CYP2C9", "setting": "[6]", "result": "did not inhibit"},
      {"measurement": "muscle lesions", "setting": "[7]; any dose", "result": "No muscle lesions were observed"},
      {"measurement": "renal findings at the end of the recovery period", "setting": "[7]; high dose animals (100, 300 mg/kg/day), all other renal lesions resolved", "result": "regeneration of renal tubular epithelial persisted in the majority of the high dose animals"},
      {"measurement": "microscopic changes in the cortex of the kidney", "setting": "[7]; monomaleate salt, 10, 30, 100, 300 mg/kg/day for 4 weeks", "result": "epithelial cell regeneration of proximal tubules and interstitial subacute inflammation"},
      {"measurement": "cardiovascular or respiratory system effects", "setting": "[8]", "result": "No cardiovascular or respiratory system effects were observed"},
      {"measurement": "QT interval", "setting": "[9]", "result": "prolongation of QT interval was reported"},
      {"measurement": "dose at which the PD limit (5 subjects with >50% increase in platelet count) was reached", "setting": "[10]; single dose", "result": 100, "unit": "mg"},
      {"measurement": "dose-concentration-response relationship for changes in platelet count", "setting": "[10]; single dose, increasing drug concentrations and exposure", "result": "linear increases in platelet counts over baseline"},
      {"measurement": "single dose after which statistically significant increases in platelet counts were evident", "setting": "[10]; single oral dose, healthy volunteers", "result": "≥ 10", "unit": "mg"},
      {"measurement": "dose-concentration-response relationship for changes in platelet count", "setting": "[11]; 3 mg to 20 mg dose range, repeat dosing", "result": "linear increases in platelet counts over baseline"},
      {"measurement": "day by which the revised PD limit (>500,000 platelets) occurred in all six (6) subjects", "setting": "[11]; 20 mg cohort", "result": "10 to 11", "unit": "days"},
      {"measurement": "dose cohort in which the original PD limit (five subjects with >50% increase in platelet count) was reached", "setting": "[11]; once daily dosing", "result": 10, "unit": "mg"},
      {"measurement": "platelet counts following repeat administration", "setting": "[11]; repeat administration of 10 mg and 20 mg", "result": "Statistically significant increases in platelet counts"}
    ]}
  ]
}
